Like-named read-outs stand apart in the source and are kept apart here. Peptide text beside a SMILES is read from it.
Key:
[1] = test system: Staphylococcus aureus ATCC 29213; settings: for IC50 (μg/ml) against S. aureus: Tables 22-23
Description: (§1) Escherichia coli ATCC 25922 and P. aeruginosa ATCC 27853 were used as Gram-negative (-) and Staphylococcus aureus ATCC 29213 as Gram-positive (+) bacteria. Bacteria were grown overnight at 37° C. in Mueller-Hinton (MH) broth. This culture was reinoculated and incubated at 37° C. to reach the exponential phase of bacteria growth, i.e., a final bacterial suspension containing 10^5 to 5×10^5 colony-forming units (CFU)/ml. The concentration of cells was established by plating 100 μl of different dilutions of the culture solution (e.g., 10^-2, 10^-3 and 10^-4) onto solid agar plates.
(§2) Following an overnight incubation at 37° C., the CFU thus formed were counted on each agar plate. In 96-well tissue culture plates, as control blanks, eight wells per plate contained only medium, while as a positive growth control, eight other wells contained medium plus cells.
(§3) The plates were incubated overnight at 37° C., and the optical density (OD) determined at 620 nm after different times of incubation.

P. aeruginosa ATCC 27853 = test: Antimicrobial assay, P. aeruginosa; settings: Tables 22-23
Description: as §1, §2, §3

[2] = test system: Human red blood cells (RBCs); test: Hemolytic activity; assay type: cell-based; settings: for % hemolysis at 100 μg/ml: Tables 22-23
[3] = test system: Streptococcus sanguis ATCC 10556; settings: for IC50 (μg/ml) against S. sanguis: Tables 22-23
Description: Streptococcus sanguis ATCC 10556 (Gram-positive (+) bacteria present in tooth crevices) was grown overnight at 37° C. in Brain Heart Infusion (BHI) broth. This culture was reinoculated and incubated at 37° C. to reach the exponential phase of bacteria growth, i.e., a final bacterial suspension containing 10^5 to 5×10^5 colony-forming units (CFU)/ml. The concentration of cells was established by plating 100 μl of different dilutions of the culture solution (e.g., 10^-2, 10^-4) and 10^-4) onto solid agar plates. Following an overnight incubation at 37° C., the CFU thus formed were counted on each agar plate. In 96-well tissue culture plates, as control blanks, eight wells per plate contained only medium, while as a positive growth control, eight other wells contained medium plus cells. […] The plates were incubated overnight at 37° C., and the optical density (OD) determined at 620 nm after 20 to 24 hours incubation.

[4] = test system: Candida albicans ATCC 10231; settings: for IC50 (μg/ml) against C. albicans: Tables 22-23
[5] = test system: Escherichia coli ATCC 25922; settings: for IC50 (μg/ml) against E. coli: Tables 22-23
Description: as §1, §2, §3

[6] = Tables 7-9, lower parts (unnatural amino acids)
[7] = Tables 11-13, lower parts (unnatural amino acids)
[8] = Tables 15-17, lower parts (unnatural amino acids)
[9] = Tables 3-5, lower parts (unnatural amino acids)

Row | Compound | HD50 (concentration necessary to lyse 50% of the cells) ([2]; Tables 18-21) | IC50 against S. aureus [1, 6] | IC50 against S. sanguis [3, 7] | IC50 against C. albicans [4, 8] | IC50 against E. coli [5, 9] | HD50 (concentration necessary to lyse 50% of the cells) ([2]; Table 20, lower part) | further results
1 | CC(=O)N[C@@H](CCCNC(=N)N)C(=O)N[C@@H](CCCNC(=N)N)C(=O)N[C@@H](Cc1c[nH]c2ccccc12)C(=O)N[C@@H](Cc1c[nH]c2ccccc12)C(=O)N[C@@H](CS)C(=O)N[C@@H](CS)C(N)=O [Ac-RRWWCC-NH2] (Ac-RRWWCC-NH2) |  |  |  |  |  |  | IC50 (μg/ml) against S. aureus [1]: 47 to 63 µg/mL; IC50 (μg/ml) against P. aeruginosa (P. aeruginosa ATCC 27853): 86 to 88 µg/mL; % hemolysis at 100 μg/ml [2]: 9.5%; IC50 (μg/ml) against S. sanguis [3]: 92 to 94 µg/mL; IC50 (μg/ml) against C. albicans [4]: 162 to 166 µg/mL; IC50 (μg/ml) against E. coli [5]: 54 to 68 µg/mL
2 | (KFmoc)WK(dOrn)-NH2 | 369 µg/mL |  |  |  |  |  | IC50 against S. aureus ([1]; Tables 6-9): 5 µg/mL; IC50 against S. sanguis ([3]; Tables 10-13): 5 µg/mL; IC50 against C. albicans ([4]; Tables 14-17): 196 µg/mL; IC50 against E. coli ([5]; Tables 2-5, concentration necessary to inhibit 50% growth): 69 µg/mL
3 | (KFmoc)WY(dOrn)-NH2 | 67 µg/mL | 5 μg/m | 7 μg/m | 359 μg/m | 35 μg/m |  | 
4 | (KFmoc)Wf(Bala)-NH2 |  | 11 μg/m | 10 μg/m | 170 μg/m | 70 μg/m | 360 μg/m | 
5 | (KFmoc)Wf(Hyp)-NH2 |  | 5 μg/m | 8 μg/m | 95 μg/m | 44 μg/m | 37 μg/m | 
6 | (KFmoc)Wf(KCBZ)-NH2 |  | 3 μg/m | 4 μg/m | 58 μg/m | 28 μg/m | 52 μg/m | 
7 | (KFmoc)Wf(aABA)-NH2 |  | 6 μg/m | 7 μg/m | 72 μg/m | 21 μg/m | 241 μg/m | 
8 | (KFmoc)Wf(aAIB)-NH2 |  | 4 μg/m | 4 μg/m | 62 μg/m | 27 μg/m | 383 μg/m | 
9 | (KFmoc)Wf(dOrn)-NH2 |  | 4 μg/m | 4 μg/m | 54 μg/m | 19 μg/m | 42 μg/m | 
10 | (KFmoc)ci(Hyp)-NH2 | 39 µg/mL | 8 μg/m | 8 μg/m | 205 μg/m | 52 μg/m |  | 
11 | (KFmoc)ci(KCBZ)-NH2 | 53 µg/mL | 5 μg/m | 3 μg/m | 78 μg/m | 15 μg/m |  | 
12 | (KFmoc)ci(dOrn)-NH2 | 77 µg/mL | 4 μg/m | 2 μg/m | 121 μg/m | 20 μg/m |  | 
13 | Ac-RRWWCL-NH2 [Ac-RRWWCL-NH2] |  |  |  |  |  |  | IC50 (μg/ml) against P. aeruginosa (P. aeruginosa ATCC 27853): 46 to 54 µg/mL; % hemolysis at 100 μg/ml [2]: 5.0%; IC50 (μg/ml) against S. sanguis [3]: 18 to 21 µg/mL; IC50 (μg/ml) against C. albicans [4]: 65 to 95 µg/mL; IC50 (μg/ml) against E. coli [5]: 19 to 22 µg/mL
14 | MagaininII-NH2 [reference compound] |  |  |  |  |  |  | IC50 (μg/ml) against S. aureus [1]: 32 to 64 µg/mL; IC50 (μg/ml) against P. aeruginosa (P. aeruginosa ATCC 27853): 150 to 200 µg/mL; IC50 (μg/ml) against S. sanguis [3]: 143 to 235 µg/mL; IC50 (μg/ml) against C. albicans [4]: 41 to 42 µg/mL; IC50 (μg/ml) against E. coli [5]: 72 to 98 µg/mL
